Like-named read-outs stand apart in the source and are kept apart here. One block for each compound: values may come before it.
Experiments:
[1] = 13-membered ring
[2] = target: T1, CFTR-mediated chloride transport in human intestinal epithelial enteroid cells (Homo sapiens, UniProt P13569); assay: Membrane potential dye, Enteroid Assay B; type: cell-based; settings: for Ent. B Max Activity: % of chloride transport of triple combination control: 1 μM (14S)-8-[3-(2-{Dispiro[2.0.2.1]heptan-7-yl}ethoxy)-1H-pyrazol-1-yl]-12,12-dimethyl-...-2,2,4-trione, 3 μM tezacaftor, 300 nM acute ivacaftor; for EC50: enteroid cells, 18-24 hours incubation, acute 10 μM forskolin and 300 nM ivacaftor, read-out: Ent. B EC50
T1 sequence (P13569 with tags, fused parts or gaps DEL508-508): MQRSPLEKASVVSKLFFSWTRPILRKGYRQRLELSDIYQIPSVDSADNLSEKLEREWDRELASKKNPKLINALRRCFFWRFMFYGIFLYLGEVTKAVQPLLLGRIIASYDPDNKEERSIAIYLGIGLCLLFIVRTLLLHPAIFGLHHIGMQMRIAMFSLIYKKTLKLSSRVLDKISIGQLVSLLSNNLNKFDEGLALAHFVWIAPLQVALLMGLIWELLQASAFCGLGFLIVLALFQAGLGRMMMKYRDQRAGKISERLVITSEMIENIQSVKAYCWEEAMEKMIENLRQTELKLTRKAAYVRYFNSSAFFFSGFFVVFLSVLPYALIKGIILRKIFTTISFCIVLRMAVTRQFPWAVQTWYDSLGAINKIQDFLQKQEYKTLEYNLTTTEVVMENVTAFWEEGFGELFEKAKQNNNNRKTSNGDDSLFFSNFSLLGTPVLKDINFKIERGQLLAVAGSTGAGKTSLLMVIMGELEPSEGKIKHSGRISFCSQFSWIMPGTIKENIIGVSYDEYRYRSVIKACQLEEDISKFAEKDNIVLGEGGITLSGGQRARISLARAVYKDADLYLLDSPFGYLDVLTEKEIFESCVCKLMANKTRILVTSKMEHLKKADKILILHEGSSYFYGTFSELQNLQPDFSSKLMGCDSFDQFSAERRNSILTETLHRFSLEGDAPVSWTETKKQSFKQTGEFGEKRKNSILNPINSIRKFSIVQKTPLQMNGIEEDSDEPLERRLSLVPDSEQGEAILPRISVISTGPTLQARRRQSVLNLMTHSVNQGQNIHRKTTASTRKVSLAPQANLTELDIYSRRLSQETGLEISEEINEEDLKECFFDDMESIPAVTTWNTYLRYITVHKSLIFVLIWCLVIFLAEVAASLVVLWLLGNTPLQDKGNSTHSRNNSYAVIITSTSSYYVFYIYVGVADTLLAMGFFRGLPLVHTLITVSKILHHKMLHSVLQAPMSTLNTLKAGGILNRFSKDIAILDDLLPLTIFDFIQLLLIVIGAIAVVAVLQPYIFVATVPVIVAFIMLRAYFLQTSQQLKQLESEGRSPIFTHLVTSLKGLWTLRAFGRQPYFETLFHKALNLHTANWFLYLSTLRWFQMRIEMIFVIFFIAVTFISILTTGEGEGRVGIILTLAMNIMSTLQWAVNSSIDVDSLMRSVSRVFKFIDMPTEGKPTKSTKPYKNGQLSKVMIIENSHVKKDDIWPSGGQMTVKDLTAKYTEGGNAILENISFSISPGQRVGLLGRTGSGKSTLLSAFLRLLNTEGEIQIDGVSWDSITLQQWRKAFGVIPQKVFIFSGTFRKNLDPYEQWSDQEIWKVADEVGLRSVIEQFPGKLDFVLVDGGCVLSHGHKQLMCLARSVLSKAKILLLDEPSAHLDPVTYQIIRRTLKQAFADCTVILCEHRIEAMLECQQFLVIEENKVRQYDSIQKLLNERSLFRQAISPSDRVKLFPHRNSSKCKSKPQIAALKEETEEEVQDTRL
Experimental: (§1) Base medium (ADF+++) consisted of Advanced DMEM/Ham's F12, 2 mM Glutamax, 10 mM HEPES, […] penicillin/streptomycin.
(§2) Intestinal enteroid maintenance medium (IEMM) consisted of ADF+++, 1×B27 supplement, 1×N2 supplement, 1.25 mM N-acetyl cysteine, 10 mM Nicotinamide, 50 ng/mL hEGF, 10 nM Gastrin, 1 μg/mL hR-spondin-1, 100 ng/mL hNoggin, TGF-b type 1 inhibitor A-83-01, 100 μg/mL Primocin, 10 μM P38 MAPK inhibitor SB202190.
(§3) Bath 1 Buffer consisted of 1 mM MgCl2, 160 mM NaCl, 4.5 mM KCl, 10 mM HEPES, 10 mM Glucose, 2 mM CaCl2).
(§4) Chloride Free Buffer consisted of 1 mM Magnesium Gluconate, 2 mM Calcium Gluconate, 4.5 mM Potassium Gluconate, 160 mM Sodium Gluconate, 10 mM HEPES, 10 mM Glucose.
(§5) BathI Dye Solution consisted of Bath 1 Buffer, 0.04% Pluronic F127, 20 μM Methyl Oxonol, 30 μM CaCCinh-A01, 30 μM Chicago Sky Blue.
(§6) Chloride Free Dye Solution consisted of Chloride Free Buffer, 0.04% Pluronic F127, 20 μM Methyl Oxonol, 30 μM CaCCinh-A01, 30 μM Chicago Sky Blue.
(§7) Chloride Free Dye Stimulation Solution consisted of Chloride Free Dye Solution, 10 μM forskolin, 100 μM IBMX, and 300 nM Compound III.
(§8) Human intestinal epithelial enteroid cells were obtained from the Hubrecht Institute for Developmental Biology and Stem Cell Research, Utrecht, The Netherlands and expanded in T-Flasks as previously described (Dekkers J F, Wiegerinck C L, de Jonge H R, Bronsveld I, Janssens H M, de Winter-de Groot K M, Brandsma A M, de Jong N W M, Bijvelds M J C, Scholte B J, Nieuwenhuis E E S, van den Brink S, Clevers H, van der Ent C K, Middendorp S and M Beekman J M. A functional CFTR assay using primary cystic fibrosis intestinal organoids. Nat Med. 2013 July; 19(7):939-45.).
(§9) Cells were recovered in cell recovery solution, collected by centrifugation at 650 rpm for 5 minutes at 4° C., resuspended in TrypLE and incubated for 5 minutes at 37° C. Cells were then collected by centrifugation at 650 rpm for 5 minutes at 4° C. and resuspended in IEMM containing 10 μM ROCK inhibitor (RI). The cell suspension was passed through a 40 μm cell strainer and resuspended at 1×10^6 cells/mL in IEMM containing 10 μM RI. Cells were seeded at 5000 cells/well into multi-well plates and incubated for overnight at 37° C., 95% humidity and 5% CO2 prior to assay.
(§10) Enteroid cells were incubated with test compound in IEMM for 18-24 hours at 37° C., 95% humidity, and 5% C02. […] Briefly, cells were washed 5 times in Bath 1 Buffer. Bath 1 Dye Solution was added and the cells were incubated for 25 minutes at room temperature. Following dye incubation, cells were washed 3 times in Chloride Free Dye Solution. Chloride transport was initiated by addition of Chloride Free Dye Stimulation Solution and the fluorescence signal was read for 15 minutes. […] Chloride transport was then expressed as a percentage of the chloride transport following treatment with 1 μM (14S)-8-[3-(2-{Dispiro[2.0.2.1]heptan-7-yl}ethoxy)-1H-pyrazol-1-yl]-12,12-dimethyl-2λ^6-thia-3,9,11,18,23-pentaazatetracyclo[17.3.1.111,14.05,10]tetracosa-1(22),5,7,9,19(23),20-hexaene-2,2,4-trione, 3 μM (R)-1-(2,2-difluorobenzo[d][1,3]dioxol-5-yl)-N-(1-(2,3-dihydroxypropyl)-6-fluoro-2-(1-hydroxy-2-methylpropan-2-yl)-1H-indol-5-yl)cyclopropanecarboxamide and 300 nM acute N-[2,4-bis(1,1-dimethylethyl)-5-hydroxyphenyl]-1,4-dihydro-4-oxoquinoline-3-carboxamide triple combination control (% Activity).

[3] = target: T1, CFTR-mediated chloride transport in human intestinal epithelial enteroid cells; assay: Membrane potential dye, Enteroid Assay A; type: cell-based; settings: for Ent. A Max Activity: % of chloride transport of triple combination control: 3 μM (S)-N-((6-aminopyridin-2-yl)sulfonyl)-6-(3-fluoro-5-isobutoxyphenyl)-2-(2,2,4-trimethylpyrrolidin-1-yl)nicotinamide, 3 μM tezacaftor, 300 nM acute ivacaftor; for EC50: enteroid cells, 18-24 hours incubation, acute 10 μM forskolin and 300 nM ivacaftor, read-out: Ent. A EC50
Experimental: as §1, §2, §3, §4, §5, §6, §7, §8, §9
as §10, with “95% humidity” for “95% humidity,”, “was added,” for “was added”, “with 3” for “with 1”, “μM (S)—N-((6-aminopyridin-2-yl)sulfonyl)-6-(3-fluoro-5-isobutoxyphenyl)-2-(2,2,4-trimethylpyrrolidin-1-yl)nicotinamide,” for “μM (14S)-8-[3-(2-{Dispiro[2.0.2.1]heptan-7-yl}ethoxy)-1H-pyrazol-1-yl]-12,12-dimethyl-2λ^6-thia-3,9,11,18,23-pentaazatetracyclo[17.3.1.111,14.05,10]tetracosa-1(22),5,7,9,19(23),20-hexaene-2,2,4-trione,”

Structure (SMILES): Cc1cccc(C)c1-c1cc2nc(n1)NS(=O)(=O)c1ccccc1C(=O)O[C@H](c1ccc(C(C)(C)C)cc1)[C@@H](C)N2 [Compound 27]
Ent. A Max Activity [3]: + (+ is <30%)

Structure (SMILES): Cc1cccc(C)c1-c1cc2nc(n1)NS(=O)(=O)c1cccc(c1)C(=O)OCC(CCC1(C(F)(F)F)CC1)N2CCC(C)C (centres unmarked) [Compound 30]
Ent. A Max Activity [3]: + (+ is <30%)

Structure (SMILES): Cc1cccc(C)c1-c1cc2nc(n1)NS(=O)(=O)c1cccc(c1)C(=O)OCC(C)(C)CN2 [Compound 34]
Ent. A Max Activity [3]: + (+ is <30%)

Structure (SMILES): Cc1cccc(C)c1-c1cc2nc(n1)NS(=O)(=O)c1cccc(c1)C(=O)O[C@@H](C)[C@@H](CC(C)C)N2 [Compound 36]
Ent. A Max Activity [3]: + (+ is <30%)

Structure (SMILES): Cc1cccc(C)c1-c1cc2nc(n1)NS(=O)(=O)c1cccc(c1)C(=O)NC(CC(C)C)CN2 (centres unmarked) [Compound 37, 6-(2,6-Dimethylphenyl)-11-isobutyl-2,2-dioxo-2 λ6-thia-3,5,9,12,19-pentazatricyclo[12.3.1.14,8]nonadeca-1(18),4(19),5,7,14,16-hexaen-13-one]
ring closure, yield after HPLC ([1]; from Cc1cccc(C)c1-c1cc(NCC(N)CC(C)C)nc(NS(=O)(=O)c2cccc(C(=O)O)c2)n1, amide bond, HATU/Et3N, DMF, 50.6 mM, 0.5 h): 67% | Ent. A Max Activity [3]: + (+ is <30%)

Structure (SMILES): Cc1cccc(C)c1-c1cc2nc(n1)NS(=O)(=O)c1cccc(c1)C(=O)N[C@H](C)CN2Cc1ccccc1 [Compound 38, (11R)-9-benzyl-6-(2,6-dimethylphenyl)-11-methyl-2,2-dioxo-2λ6-thia-3,5,9,12,19-pentazatricyclo[12.3.1.14,8]nonadeca-1(18),4(19),5,7,14,16-hexaen-13-one]
ring closure, yield after HPLC ([1]; from Cc1cccc(C)c1-c1cc(N(Cc2ccccc2)C[C@@H](C)N)nc(NS(=O)(=O)c2cccc(C(=O)O)c2)n1, amide bond, HATU/Et3N, DMF, 44.7 mM, 25.0 °C, 16.0 h): 23% | Ent. A Max Activity [3]: + (+ is <30%)

Structure (SMILES): Cc1cccc(C)c1-c1cc2nc(n1)NS(=O)(=O)c1cccc(c1)C(=O)NCCN2CC(C)C [Compound 39, 6-(2,6-Dimethylphenyl)-9-isobutyl-2,2-dioxo-2 λ6-thia-3,5,9,12,19-pentazatricyclo[12.3.1.14,8]nonadeca-1(18),4(19),5,7,14,16-hexaen-13-one]
ring closure, yield after HPLC ([1]; from Cc1cccc(C)c1-c1cc(N(CCN)CC(C)C)nc(NS(=O)(=O)c2cccc(C(=O)O)c2)n1, amide bond, HATU/Et3N, DMF, 25.3 mM, 25.0 °C, 0.5 h): 35% | Ent. A Max Activity [3]: + (+ is <30%)

Further lines, with some results ahead:

Ent. B Max Activity [2]: +++ (+++ is >60%) | EC50 [2]: < 1 µM
Structure (SMILES): Cc1cccc(C)c1-c1cc2nc(n1)NS(=O)(=O)c1cccc(c1)C(=O)N(C1CC3(CC3)C1)[C@H](CC(C)C)CC2 [Compound 6, (11S)-6-(2,6-Dimethylphenyl)-11-isobutyl-2,2-dioxo-12-spiro[2.3]hexan-5-yl-2 λ6-thia-3,5,12,19-tetrazatricyclo[12.3.1.14,8]nonadeca-1(18),4(19),5,7,14,16-hexaen-13-one]
ring closure, yield after HPLC ([1]; from Cc1cccc(C)c1-c1cc(CC[C@@H](CC(C)C)NC2CC3(CC3)C2)nc(NS(=O)(=O)c2cccc(C(=O)O)c2)n1, amide bond, HATU/DIEA, NMP, 126.6 mM, 25.0 °C, 2.0 h): 50%

Ent. B Max Activity [2]: +++ (+++ is >60%) | EC50 [2]: < 1 µM
Structure (SMILES): Cc1cccc(C)c1-c1cc2nc(n1)NS(=O)(=O)c1cccc(c1)C(=O)N(C1CC3(CC3)C1)[C@H](CC1(C(F)(F)F)CC1)CC2 [Compound 7, (11S)-6-(2,6-Dimethylphenyl)-2,2-dioxo-12-spiro[2.3]hexan-5-yl-11-[[1-(trifluoromethyl)cyclopropyl]methyl]-2 λ6-thia-3,5,12,19-tetrazatricyclo [12.3.1.14,8]nonadeca-1(18),4(19),5,7,14,16-hexaen-13-one]
ring closure, yield after HPLC ([1]; from Cc1cccc(C)c1-c1cc(CC[C@@H](CC2(C(F)(F)F)CC2)NC2CC3(CC3)C2)nc(NS(=O)(=O)c2cccc(C(=O)O)c2)n1, amide bond, HATU/DIEA, NMP, 26.8 mM, 25.0 °C, 16.0 h): 22%

Ent. B Max Activity [2]: +++ (+++ is >60%) | EC50 [2]: 1 to 3 µM
Structure (SMILES): Cc1cccc(C)c1-c1cc2nc(n1)NS(=O)(=O)c1cccc(c1)C(=O)N(C1CC3(CC3)C1)CCC2C (centres unmarked) [Compound 11, 6-(2,6-dimethylphenyl)-9-methyl-2,2-dioxo-12-spiro[2.3]hexan-5-yl-2λ^6-thia-3,5,12,19-tetrazatricyclo[12.3.1.14,8]nonadeca-1(18),4(19),5,7,14,16-hexaen-13-one]
ring closure, yield after HPLC ([1]; from Cc1cccc(C)c1-c1cc(C(C)CCNC2CC3(CC3)C2)nc(NS(=O)(=O)c2cccc(C(=O)O)c2)n1, amide bond, HATU/DIEA, NMP, 20.1 mM, 25.0 °C, 16.0 h): 86%

Ent. B Max Activity [2]: + (+ is <30%)
Structure (SMILES): Cc1cccc(C)c1-c1nc2nc(c1C)NCCOC(=O)c1cccc(c1)S(=O)(=O)N2 [Compound 24, 6-(2,6-dimethylphenyl)-7-methyl-12-oxa-2 λ6-thia-3,5,9,19-tetraazatricyclo[12.3.1.14,8]nonadeca-1(18),4,6,8(19),14,16-hexaene-2,2,13-trione]
ring closure, yield after HPLC ([1]; from Cc1cccc(C)c1-c1nc(NS(=O)(=O)c2cccc(C(=O)O)c2)nc(OCCN)c1C, ester bond, HATU/DIEA, DMF, 50.7 mM, 25.0 °C): 23%

EC50 [3]: 1 to 3 µM
Structure (SMILES): Cc1cccc(C)c1-c1cc2nc(n1)NS(=O)(=O)c1cccc(c1)C(=O)OCC(CCC1(C(F)(F)F)CC1)N2CCC1CCOCC1 (centres unmarked) [Compound 26, 6-(2,6-dimethylphenyl)-2,2-dioxo-9-(2-tetrahydropyran-4-ylethyl)-10-[2-[1-(trifluoromethyl)cyclopropyl]ethyl]-12-oxa-2λ6-thia-3,5,9,19-tetrazatricyclo[12.3.1.14,8]nonadeca-1(18),4(19),5,7,14,16-hexaen-13-one]
Ent. A Max Activity [3]: +++ (+++ is >60%)

EC50 [3]: 1 to 3 µM
Structure (SMILES): Cc1cccc(C)c1-c1cc2nc(n1)NS(=O)(=O)c1cccc(c1)C(=O)OCC[C@H](c1ccccc1)N2 [Compound 28]
Ent. A Max Activity [3]: ++ (++ is 30-60%)

EC50 [3]: 1 to 3 µM
Structure (SMILES): Cc1cccc(C)c1-c1cc2nc(n1)NS(=O)(=O)c1cccc(c1)C(=O)OCC(CCC1(C(F)(F)F)CC1)N2Cc1ccccc1 (centres unmarked) [Compound 31]
Ent. A Max Activity [3]: ++ (++ is 30-60%)

EC50 [3]: 1 to 3 µM
Structure (SMILES): Cc1cccc(C)c1-c1cc2nc(n1)NS(=O)(=O)c1cccc(c1)C(=O)OCC[C@@H](c1ccccc1)N2 [Compound 33]
Ent. A Max Activity [3]: +++ (+++ is >60%)

— patent publication US12612416B2, “Modulators of cystic fibrosis transmembrane conductance regulator” (VERTEX PHARMACEUTICALS INCORPORATED, priority 2020, dated 2026)
